Results reported in paper PMC9934367, “Functional impact of subunit composition and compensation on Drosophila melanogaster nicotinic receptors–targets of neonicotinoids” (PLOS Genetics, 2023).

Tested on: D. melanogaster nAChRs
Assay: Comparison of agonist activity between nAChRs expressed in X. laevis oocytes (one-way ANOVA, Kruskal-Wallis);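 for Difference of Imax values: Imax relative to maximal plateau response to ACh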
Assay type: cell-based
Experimental: We minimised the use of X. laevis according to the UK Animals (Scientific Procedures) Act, 1986. […] Oocytes were defolliculated after collagenase treatment in Ca^2+-free standard oocyte saline (Ca^2+-free SOS). cRNAs of the nAChR subunits and co-factors mixed at a concentration of 0.1 mg/mL was injected into oocytes at a volume of 50 nL. Then the oocytes were incubated in the incubation medium (SOS supplemented with sodium pyruvate (Nacalai Tesque, #13058–12), penicillin-streptomycin (MilliporeSigma, #P4333), gentamycin (Nacalai Tesque, #16672–04), and 4% horse serum (Thermo Fisher Scientific, #26050–070) for 3−4 days prior to electrophysiology.
Each defolliculated X. laevis oocyte was secured in a Perspex recording chamber and perfused with the standard oocyte saline (SOS) containing 0.5 μM atropine (SOSA) at a flow rate of 7−10 mL/min [48]. Two glass electrodes filled with 2 M KCl were impaled into each oocyte and the membrane potential was clamped at -100 mV. […] The peak amplitude of the response was measured and analysed by pCLAMP (Molecular Devices, USA).
Y=Imax/1+10^(logEC50‐X)nH
Where Y is the normalised response, X is log[ligand (M)], EC50 is the half maximal concentration (M), Imax is the maximum normalised response and nH is the Hill coefficient.
Prism software was employed for the statistical analyses. […] One-way ANOVA was used to analyse the differences of the ligand agonist activity in terms of pEC50 on the various nAChRs expressed in X. laevis as well as data obtained with D. melanogaster larvae and adults.

[1] = Dα1/Dβ1/Dβ2 vs. Dα1/Dα3/Dβ1/Dβ2
[2] = Dα1/Dβ1/Dβ2 vs. Dα2/Dα3/Dβ1/Dβ2
[3] = Dα1/Dβ1 vs. Dα1/Dα2/Dα3/Dβ1/Dβ2
[4] = Dα2/Dα3/Dβ1/Dβ2 vs. Dα1/Dα2/Dα3/Dβ1/Dβ2
[5] = Dα2/Dα3/Dβ1 vs. Dα1/Dα2/Dα3/Dβ1
[6] = Dα2/Dα3/Dβ1 vs. Dα1/Dα2/Dα3/Dβ1/Dβ2
[7] = Dα2/Dα3/Dβ1 vs. Dα1/Dα2/Dβ1/Dβ2
[8] = Dα2/Dα3/Dβ1 vs. Dα1/Dα3/Dβ1/Dβ2
[9] = Dα2/Dα3/Dβ1 vs. Dα2/Dα3/Dβ1/Dβ2
[10] = Dα3/Dβ1/Dβ2 vs. Dα1/Dα2/Dα3/Dβ1/Dβ2
[11] = Dα3/Dβ1/Dβ2 vs. Dα1/Dα2/Dβ1/Dβ2
[12] = Dα3/Dβ1/Dβ2 vs. Dα1/Dα3/Dβ1/Dβ2
[13] = Dα3/Dβ1/Dβ2 vs. Dα2/Dα3/Dβ1/Dβ2
[14] = Dα3/Dβ1 vs. Dα1/Dα2/Dα3/Dβ1/Dβ2

Q: With `O=[N+]([O-])NC1=NCCN1Cc1ccc(Cl)nc1` [Imidacloprid, imidacloprid] as the compound, how does the “Difference of Imax values” [1] read?
A: Its value is -0.254.

Q: And the “Difference of pEC50 values” [1]?
A: The value was -0.53.

Q: What about the “Difference of Imax values” [2] of the same compound?
A: Its value is -0.049.

Q: What about the “Difference of pEC50 values” [2] of the same compound?
A: The value was -0.01.

Q: And the “Difference of Imax values” (Dα1/Dβ1/Dβ2 vs. Dα3/Dβ1/Dβ2)?
A: The value was 0.037.

Q: And the “Difference of pEC50 values” (Dα1/Dβ1/Dβ2 vs. Dα3/Dβ1/Dβ2)?
A: The value was -1.29.

Q: And the “Difference of Imax values” (Dα1/Dβ1 vs. Dα1/Dα2/Dα3/Dβ1)?
A: Its value is 0.028.

Q: What about the “Difference of pEC50 values” (Dα1/Dβ1 vs. Dα1/Dα2/Dα3/Dβ1) of the same compound?
A: The value was 0.08.

Q: And the “Difference of Imax values” [3]?
A: Its value is -0.020.

Q: What about the “Difference of pEC50 values” [3] of the same compound?
A: The value was 0.69.

Q: And the “Difference of Imax values” (Dα1/Dβ1 vs. Dα1/Dα2/Dβ1)?
A: The value was 0.091.

Q: And the “Difference of pEC50 values” (Dα1/Dβ1 vs. Dα1/Dα2/Dβ1)?
A: Its value is 0.45.

Q: And the “Difference of Imax values” (Dα1/Dβ1 vs. Dα1/Dα2/Dβ1/Dβ2)?
A: Its value is -0.043.

Q: What about the “Difference of pEC50 values” (Dα1/Dβ1 vs. Dα1/Dα2/Dβ1/Dβ2) of the same compound?
A: Its value is 0.71.

Q: What about the “Difference of Imax values” (Dα1/Dβ1 vs. Dα1/Dα3/Dβ1) of the same compound?
A: Its value is -0.048.

Q: And the “Difference of pEC50 values” (Dα1/Dβ1 vs. Dα1/Dα3/Dβ1)?
A: Its value is -0.42.

Q: What about the “Difference of Imax values” (Dα1/Dβ1 vs. Dα1/Dα3/Dβ1/Dβ2) of the same compound?
A: The value was -0.208.

Q: And the “Difference of pEC50 values” (Dα1/Dβ1 vs. Dα1/Dα3/Dβ1/Dβ2)?
A: Its value is -0.36.

Q: What about the “Difference of Imax values” (Dα1/Dβ1 vs. Dα1/Dβ1/Dβ2) of the same compound?
A: Its value is 0.046.

Q: What about the “Difference of pEC50 values” (Dα1/Dβ1 vs. Dα1/Dβ1/Dβ2) of the same compound?
A: The value was 0.17.

Q: And the “Difference of Imax values” (Dα1/Dβ1 vs. Dα2/Dα3/Dβ1)?
A: The value was 0.021.

Q: What about the “Difference of pEC50 values” (Dα1/Dβ1 vs. Dα2/Dα3/Dβ1) of the same compound?
A: The value was 0.28.

Q: What about the “Difference of Imax values” (Dα1/Dβ1 vs. Dα2/Dα3/Dβ1/Dβ2) of the same compound?
A: The value was -0.003.

Q: What about the “Difference of pEC50 values” (Dα1/Dβ1 vs. Dα2/Dα3/Dβ1/Dβ2) of the same compound?
A: Its value is 0.16.

Q: And the “Difference of Imax values” (Dα1/Dβ1 vs. Dα3/Dβ1)?
A: Its value is 0.090.

Q: And the “Difference of pEC50 values” (Dα1/Dβ1 vs. Dα3/Dβ1)?
A: Its value is -1.16.

Q: And the “Difference of Imax values” (Dα1/Dβ1 vs. Dα3/Dβ1/Dβ2)?
A: The value was 0.083.

Q: What about the “Difference of pEC50 values” (Dα1/Dβ1 vs. Dα3/Dβ1/Dβ2) of the same compound?
A: Its value is -1.12.

Q: And the “Difference of Imax values” [4]?
A: Its value is -0.017.

Q: And the “Difference of pEC50 values” [4]?
A: Its value is 0.53.

Q: And the “Difference of Imax values” [5]?
A: Its value is 0.007.

Q: And the “Difference of pEC50 values” [5]?
A: Its value is -0.20.

Q: And the “Difference of Imax values” [6]?
A: Its value is -0.041.

Q: What about the “Difference of pEC50 values” [6] of the same compound?
A: The value was 0.41.

Q: And the “Difference of Imax values” [7]?
A: Its value is -0.064.

Q: And the “Difference of pEC50 values” [7]?
A: The value was 0.43.

Q: What about the “Difference of Imax values” [8] of the same compound?
A: The value was -0.229.

Q: What about the “Difference of pEC50 values” [8] of the same compound?
A: The value was -0.64.

Q: And the “Difference of Imax values” (Dα2/Dα3/Dβ1 vs. Dα1/Dβ1/Dβ2)?
A: Its value is 0.025.

Q: And the “Difference of pEC50 values” (Dα2/Dα3/Dβ1 vs. Dα1/Dβ1/Dβ2)?
A: Its value is -0.11.

Q: What about the “Difference of Imax values” [9] of the same compound?
A: Its value is -0.024.

Q: And the “Difference of pEC50 values” [9]?
A: Its value is -0.12.

Q: And the “Difference of Imax values” (Dα2/Dα3/Dβ1 vs. Dα3/Dβ1/Dβ2)?
A: The value was 0.062.

Q: What about the “Difference of pEC50 values” (Dα2/Dα3/Dβ1 vs. Dα3/Dβ1/Dβ2) of the same compound?
A: Its value is -1.40.

Q: What about the “Difference of Imax values” [10] of the same compound?
A: Its value is -0.103.

Q: And the “Difference of pEC50 values” [10]?
A: The value was 1.81.

Q: And the “Difference of Imax values” [11]?
A: The value was -0.126.

Q: What about the “Difference of pEC50 values” [11] of the same compound?
A: The value was 1.83.

Q: And the “Difference of Imax values” [12]?
A: Its value is -0.291.

Q: What about the “Difference of pEC50 values” [12] of the same compound?
A: Its value is 0.76.

Q: And the “Difference of Imax values” [13]?
A: Its value is -0.086.

Q: What about the “Difference of pEC50 values” [13] of the same compound?
A: The value was 1.28.

Q: And the “Difference of Imax values” (Dα3/Dβ1 vs. Dα1/Dα2/Dα3/Dβ1)?
A: Its value is -0.062.

Q: What about the “Difference of pEC50 values” (Dα3/Dβ1 vs. Dα1/Dα2/Dα3/Dβ1) of the same compound?
A: Its value is 1.24.

Q: What about the “Difference of Imax values” [14] of the same compound?
A: Its value is -0.110.

Q: What about the “Difference of pEC50 values” [14] of the same compound?
A: Its value is 1.85.

Q: What about the “Difference of Imax values” (Dα3/Dβ1 vs. Dα1/Dα2/Dβ1) of the same compound?
A: Its value is 0.001.

Q: What about the “Difference of pEC50 values” (Dα3/Dβ1 vs. Dα1/Dα2/Dβ1) of the same compound?
A: The value was 1.61.

Q: What about the “Difference of Imax values” (Dα3/Dβ1 vs. Dα1/Dα2/Dβ1/Dβ2) of the same compound?
A: The value was -0.133.

Q: And the “Difference of pEC50 values” (Dα3/Dβ1 vs. Dα1/Dα2/Dβ1/Dβ2)?
A: The value was 1.87.

Q: And the “Difference of Imax values” (Dα3/Dβ1 vs. Dα1/Dα3/Dβ1)?
A: Its value is -0.138.

Q: And the “Difference of pEC50 values” (Dα3/Dβ1 vs. Dα1/Dα3/Dβ1)?
A: Its value is 0.74.

Q: And the “Difference of Imax values” (Dα3/Dβ1 vs. Dα1/Dα3/Dβ1/Dβ2)?
A: Its value is -0.298.

Q: And the “Difference of pEC50 values” (Dα3/Dβ1 vs. Dα1/Dα3/Dβ1/Dβ2)?
A: Its value is 0.80.

Q: And the “Difference of Imax values” (Dα3/Dβ1 vs. Dα1/Dβ1/Dβ2)?
A: Its value is -0.044.

Q: And the “Difference of pEC50 values” (Dα3/Dβ1 vs. Dα1/Dβ1/Dβ2)?
A: Its value is 1.33.

Q: And the “Difference of Imax values” (Dα3/Dβ1 vs. Dα2/Dα3/Dβ1)?
A: The value was -0.069.

Q: And the “Difference of pEC50 values” (Dα3/Dβ1 vs. Dα2/Dα3/Dβ1)?
A: The value was 1.44.

Q: What about the “Difference of Imax values” (Dα3/Dβ1 vs. Dα2/Dα3/Dβ1/Dβ2) of the same compound?
A: The value was -0.093.

Q: What about the “Difference of pEC50 values” (Dα3/Dβ1 vs. Dα2/Dα3/Dβ1/Dβ2) of the same compound?
A: The value was 1.32.

Q: And the “Difference of Imax values” (Dα3/Dβ1 vs. Dα3/Dβ1/Dβ2)?
A: Its value is -0.007.

Q: And the “Difference of pEC50 values” (Dα3/Dβ1 vs. Dα3/Dβ1/Dβ2)?
A: The value was 0.04.
